{"source": "patent US20100291163A1", "about": "“ORAL CARE COMPOSITION COMPRISING NANOPARTICULATE TITANIUM DIOXIDE” (priority 2006, published 2010)", "experiment": "Microindentation as a measure of enamel hardness: softening by 1.0% w/w citric acid pH 3.8 after 120 s treatment", "set-up": "species or system human", "conditions": "FIG. 1", "procedure": "Human enamel chips were mounted in acrylic resin and polished flat using silicon carbide paper (1200 and 2400 grit). The specimens were then randomised and divided into three treatment groups (n=6). The treatment groups were 300 ppm fluoride (sodium fluoride); glycerin-coated titanium dioxide (with a mean particle size of 20 nm) aqueous suspension, 2.5% w/v (UV Titan M212, Kemira, Aston Chemicals); and deionised water. The baseline hardness of each specimen was determined using a Struers Duramin Microindentor, fitted with a Vickers diamond indenter. Hardness values were expressed as Vickers Hardness Numbers (VHN). A load of 1.961N was applied to the specimens, with a dwell time of 20 seconds.\nSpecimens were placed in 30 ml of one of the three test solutions with agitation for 120 seconds, before rinsing with deionised water. After treatment, microhardness measurements were repeated. Erosion was then performed by incubating the mounted specimens for 30 minutes in 10 ml of a 1.0% w/w solution of citric acid, pH 3.8. Specimens were removed from the erosive challenge at 10 minute intervals and the surface microhardness determined.\nThe values for enamel hardness have been normalised relative to the individual baseline microhardness values, thus data at subsequent time points reflects softening of the enamel. The error bars in FIG. 1 represent standard deviations.\nThe treatments tested in this study were: 2.5% w/v titanium dioxide aqueous suspensions, specifically 20 nm glycerin-coated titanium dioxide (UV Titan M212, Kemira, Aston Chemicals), 20 nm PVP-coated titanium dioxide (UV Titan M263, Kemira, Aston Chemicals), 17 nm Stearic acid-coated titanium dioxide (UV Titan M160, Kemira, Aston Chemicals) and 14 nm uncoated titanium dioxide (UV Titan X140, Kemira, Aston Chemicals). A glycerin only negative control was used in the study."}
{"smiles": "[F-].[Na+]", "note": "[300 ppm fluoride, sodium fluoride]", "values": [{"measurement": "enamel softening (microhardness normalised to baseline) during citric acid exposure", "setting": "1.0% w/w citric acid pH 3.8, up to 30 min, 120 s treatment", "result": "softened during the period in which they were exposed to citric acid, increasingly so as the incubation time increased"}, {"measurement": "enamel softening versus water-treated enamel", "setting": "after 20 and 30 mins in citric acid", "result": "softened significantly less than enamel treated with water"}, {"measurement": "extent of enamel softening, fluoride versus nanoparticle suspension", "setting": "after 20 mins citric acid exposure", "result": "equivalent in their extent of softening"}]}
